Experimental findings from US20040242524A1, “Chemotherapeutic composition and method” (priority 1998, published 2004) are described below.

SMILES strings stand for the structures. In brackets after ≈: the same amount, converted by molar mass. Several values for one entry are separate records, joined by “and”; a condition that tells them apart may be missing. Identical values can stand only once. Like-named read-outs stand apart in the source and are kept apart here.

Test [1] deals with B-16 melanoma cells. In words: Inhibition of B-16 melanoma cell proliferation by chemotherapeutic agents ± MCC (MTT reduction). The following applies: for IC50: B16; for inhibited proliferation: 72 h, MTT. The format is cell-based, murine. As to the method: B-16 melanoma cells, at 3×10^5 cells/ml, were incubated for 72 h with the chemotherapeutic agents mitomycin-C, 5-fluorouracil and cisplatin in the absence and in the presence of MCC. Cell proliferation was determined using dimethylthiazol-diphenyltetrazolium bromide (MTT) reduction (Mosman et al. Journal of Immunological Methods 65:55-63, 1983). After 72 h, 20 μl of MTT in culture medium was added to each well and incubated for 3 h. Medium was then aspirated from each well, 100 μl of acidified isopropyl alcohol was added to each sample and reduced MTT was solubilized by mixing. The absorbency of the reaction product was determined using an ELISA microplate reader at a wavelength of 570 nm.
B-16 melanoma cells were incubated with 0.01 to 100 μg/ml of mitomycin-C, with 1 to 100 μg/ml of MCC and with 0.01 to 10 μg/ml of mitomycin-C+1 μg/ml MCC. Mitomycin-C is an anti-tumor antibiotic produced by Streptomyces caespitosus, which cross-links DNA, depolymerizes DNA and forms free radicals.
B-16 melanoma cells were incubated with 0.01 to 100 μg/ml of 5-fluorouracil, with 1 to 100 μg/ml of MCC and with 0.01 to 10 μg/ml of 5-fluorouracil+1 μg/ml MCC. 5-fluorouracil is an antimetabolite, which interferes with DNA and RNA synthesis.
B-16 melanoma cells were incubated with 0.01 to 100 μg/ml of cisplatin, with 1 to 100 μg/ml of MCC and with 0.01 to 10 μg/ml of cisplatin+1 μg/ml MCC. Cisplatin is an alkylating agent that cross-links DNA and inhibits DNA precursors.

The next test has as its system B-16 melanoma tumors. The test is described as follows: Effects of M-DNA and MCC in combination with mitomycin-C on B-16 melanoma tumors in mice. It is filed as in vivo. The conditions noted are these: nude BALB/c mice, subcutaneous B-16, after 4 weeks of treatment; Group 1 saline, Group 4 mitomycin-C. As to the method: B-16 melanoma cells are implanted subcutaneously into 30 male nude BALB/c mice and allowed to grow for 10 days. The mice are divided into 6 groups and tumor mass is measured in each mouse. On day 0, Group 1 mice receive saline, Group 2 mice receive M-DNA, Group 3 mice receive MCC, Group 4 mice receive mitomycin-C, Group 5 mice receive M-DNA and mitomycin-C and Group 6 mice receive MCC and mitomycin-C. After 4 weeks of treatment, the mice are sacrificed and the tumor mass and number of metastases are determined. Group 1 mice have the most tumor mass.

Test [2] deals with B-16 melanoma cells. The test is described as follows: Cell cycle analysis, synchronously dividing (MTX) B-16 cells. It is filed as cell-based, murine. The conditions noted are these: MTX alone. As to the method: (§1) Cell cycle stage was determined using a CYCLETEST™ PLUS DNA commercial kit (Becton Dickinson, San Jose, Calif., USA). Briefly, nuclei from treated cells were obtained by dissolving the cell membrane in a nonionic detergent, eliminating the cell cytoskeleton and nuclear proteins with trypsin, digesting the cellular RNA with RNase, and stabilizing the nuclear chromatin with spermine. Propidium iodide was added to the cell nuclei and their fluorescence was analyzed in a flow cytometer equipped with electronic doublet discrimination capability (FACSCalibur, Becton Dickinson). Accumulation of cells in GO/G1, S (SE, SM, SL) or G2/M phases of the cell cycle was analyzed using MODFIT LT software (Verity Software House Inc., Topsham, Mass., USA). Results are expressed as percentage of cells in each phase of the cell cycle.
(§2) To synchronize cell populations, exponentially growing cells were incubated in tissue culture medium containing 0.04 to 0.16 μM methotrexate (MTX) for 20 hours. The MTX medium was removed, cells were washed extensively with phosphate buffered saline (PBS), fresh medium was added, incubation was continued for 8 hours and cell cycle analysis was performed as in Example 4.
(§3) Exponentially growing Jurkat, HL-60, HL-60MX1 and EL-4 cells, at 1×10^6 cells/ml, and B-16 cells, at 3×10^5 cells/ml, were prepared for analysis as in Example 5 with 0, 10 and 100 μg/ml of MCC in the MTX medium.

In test [3] the test system is mitoxantrone resistant promyelocytic HL-60MX1 leukemia cells. The test is described as follows: Cell cycle analysis, synchronously dividing (MTX) HL-60MX1 cells. The format is cell-based, human. The conditions noted are these: MTX alone (0.04 μM). As to the method:
as §1, §2, §3

Another test relates to EL-4 lymphoma cells. The test is described as follows: Cell cycle analysis, synchronously dividing (MTX) EL-4 cells. It is filed as cell-based, murine. The conditions noted are these: MTX alone (0.16 μM). As to the method: as §1, §2, §3
For test [4], the system named is Jurkat T cell leukemia cells. In words: Cell cycle analysis, synchronously dividing (MTX) Jurkat cells. The following applies: MTX alone (0.08 μM). The format is cell-based, human. As to the method:
as §1, §2, §3
Exponentially growing Jurkat leukemia cells, at 1×10^6 cells/ml, were prepared for analysis as in Example 5 with 0 and 10 μg/ml of MCC and 10 μg/ml DNase I-treated MCC in the MTX medium.

For test [5], the system named is promyelocytic HL60 leukemia cells (HL-60). In words: Cell cycle analysis, synchronously dividing (MTX) HL-60 cells. The format is cell-based, human. The conditions noted are these: MTX alone (0.04 μM). As to the method: as §1, §2, §3
[6] abbreviates: 0.1 μg/ml, in the presence of 1 μg/ml MCC.
Where [7] appears, read: 1 μg/ml, in the presence of 1 μg/ml MCC.

Regarding `O=c1[nH]cc(F)c(=O)[nH]1` [5-fluorouracil], the inhibition at 0.01 µg/mL in the test on B-16 melanoma cells [1] (Mus musculus, B16, 72 h, read-out: inhibited proliferation, 0.01 μg/ml, agent alone, 72 h, MTT) is around 8%; with B-16 melanoma cells [1] (Mus musculus, B16, 72 h, read-out: inhibited proliferation, 0.01 μg/ml, in the presence of 1 μg/ml MCC, 72 h, MTT), around 75%. Moreover, the inhibition at 0.1 µg/mL in the test with B-16 melanoma cells [1] (Mus musculus, B16, 72 h, read-out: inhibited proliferation, 0.1 μg/ml, agent alone, 72 h, MTT) was around 50%; with B-16 melanoma cells [1] (Mus musculus, B16, 72 h, read-out: inhibited proliferation, 0.1 μg/ml, in the presence of 1 μg/ml MCC, 72 h, MTT), around 85%. Also, the inhibition at 1 µg/mL with B-16 melanoma cells [1] (Mus musculus, B16, 72 h, read-out: inhibited proliferation, 1 μg/ml, agent alone, 72 h, MTT) was around 90%; in the test with B-16 melanoma cells [1] (Mus musculus, B16, 72 h, read-out: inhibited proliferation, 1 μg/ml, in the presence of 1 μg/ml MCC, 72 h, MTT) it was around 90%. Besides, the inhibition at 10 µg/mL was 100% in the test with B-16 melanoma cells [1] (Mus musculus, B16, 72 h, read-out: inhibited proliferation, 10 μg/ml, agent alone, 72 h, MTT) and 100% with B-16 melanoma cells [1] (Mus musculus, B16, 72 h, read-out: inhibited proliferation, 10 μg/ml, in the presence of 1 μg/ml MCC, 72 h, MTT). Also, in the test with B-16 melanoma cells [1] (Mus musculus, B16, 72 h, read-out: inhibited proliferation, 100 μg/ml, agent alone, 72 h, MTT), the inhibition at 100 µg/mL was determined as 100%. Besides, the IC50 with B-16 melanoma cells [1] (Mus musculus, read-out: IC50 (concentration for 50% inhibition of B-16 melanoma cell proliferation), Drug + MCC at 1 μg/ml) amounted to 0.005 µg/mL; in the test with B-16 melanoma cells [1] (Mus musculus, read-out: IC50 (concentration for 50% inhibition of B-16 melanoma cell proliferation), Drug Alone), 0.12 µg/mL (≈ 0.923 µM).

On to `CO[C@@]12[C@H](COC(N)=O)C3=C(C(=O)C(C)=C(N)C3=O)N1C[C@@H]1N[C@@H]12` [mitomycin-C], for which the inhibited proliferation result was “about 5%” with B-16 melanoma cells [1] (0.1 μg/ml, agent alone); “about 40%” in the test on B-16 melanoma cells [1] (setting [6]); “about 10%” in the test with B-16 melanoma cells [1] (1 μg/ml, agent alone); “about 65%” in the test on B-16 melanoma cells [1] (setting [7]); 100% in the test on B-16 melanoma cells [1] (10 μg/ml, agent alone); 100% in the test on B-16 melanoma cells [1] (100 μg/ml, agent alone). The inhibited proliferation with B-16 melanoma cells [1] (100 μg/ml, in the presence of 1 μg/ml MCC) came out at 100%. In addition, in the test with B-16 melanoma cells [1], the “IC50 (concentration for 50% inhibition of B-16 melanoma cell proliferation), Drug + MCC at 1 μg/ml” value stood at 0.12 µg/mL. For the same compound, in the test with B-16 melanoma cells [1], the “IC50 (concentration for 50% inhibition of B-16 melanoma cell proliferation), Drug Alone” value is 2.2 µg/mL. Further, in the test with B-16 melanoma tumors, the tumor mass result is given as “less tumor mass than Group 1 mice”.

With `CN(Cc1cnc2nc(N)nc(N)c2n1)c1ccc(C(=O)N[C@@H](CCC(=O)O)C(=O)O)cc1` [MTX, methotrexate], the “PERCENTAGE OF CELLS IN EACH PHASE: G0G1 + SE” value with B-16 melanoma cells [2] was 48.3%; in test [3], 46.1%; in the test on EL-4 lymphoma cells it was 18.3%; in test [4], 44.6% and 43.0%; in test [5], 50.3%. In addition, the “PERCENTAGE OF CELLS IN EACH PHASE: SL + G2M” value in the test with B-16 melanoma cells [2] was 46.3%; in test [3] it was 18.4%; in the test on EL-4 lymphoma cells it was 63.3%; in test [4], 30.1% and 31.4%; in test [5], 25.5%. For the same compound, the “PERCENTAGE OF CELLS IN EACH PHASE: SM” value was 5.4% in the test with B-16 melanoma cells [2]; 35.5% in test [3]; 18.4% with EL-4 lymphoma cells; 25.3% and 25.6% in test [4]; 24.2% in test [5].

For the compound `N.N.[Cl][Pt][Cl]` [cisplatin], the inhibited proliferation with B-16 melanoma cells [1] (0.01 μg/ml, agent alone) is 0%; with B-16 melanoma cells [1] (0.01 μg/ml, in the presence of 1 μg/ml MCC), “about 40%”; in the test on B-16 melanoma cells [1] (0.1 μg/ml, agent alone) it was “about 8%”; in the test with B-16 melanoma cells [1] (setting [6]), “about 50%”; with B-16 melanoma cells [1] (1 μg/ml, agent alone), “about 62%”; in the test with B-16 melanoma cells [1] (setting [7]) it was “about 70%”. Further, the inhibited proliferation entry with B-16 melanoma cells [1] (10 μg/ml, agent alone) is “about 90%”; in the test with B-16 melanoma cells [1] (10 μg/ml, in the presence of 1 μg/ml MCC), “about 90%”; in the test on B-16 melanoma cells [1] (100 μg/ml, agent alone), 100%. Also, the “IC50 (concentration for 50% inhibition of B-16 melanoma cell proliferation), Drug + MCC at 1 μg/ml” value in the test with B-16 melanoma cells [1] was determined as 0.16 µg/mL. In addition, the “IC50 (concentration for 50% inhibition of B-16 melanoma cell proliferation), Drug Alone” value with B-16 melanoma cells [1] was found to be 0.6 µg/mL.
